We go through 1 compound from patent US20240010726A1, “LFA-1 SIGNALLING MEDIATOR FOR USE IN CANCER THERAPY” (Universität Basel, priority 2020, published 2024).

The target in test [1] is T1, LFA-1 (Homo sapiens, UniProt P05107+P20701).
T1 construct: endogenous in cells; host or cells: primary human T cells from healthy donors: PHA-induced T cell blasts, sorted EM and naive CD8 T cells, and NY-ESO-1 TCR-transduced REP T cells
Put plainly: Flow cytometry of LFA-1 conformations on PHA T cell blasts. Type of test: cell-based. The method, then: Glycolytic switch of human EM CD8 T cells (a) and naïve CD8 T cells (b) subsets upon injection of anti-CD3 Ab only, or anti-CD3 and anti-CD28 Ab, was assessed by metabolic flux analysis in medium containing either 1.2 mM Mg^2+, 0 mM Mg^2+, or medium which was reconstituted from 0 mM to 1.2 mM Mg^2+ immediately prior to activation (0→1.2 mM Mg^2+). (a) Results for human effector memory (EM) and (b) for human naïve CD8 T cells. Glycolytic switch was quantified by subtracting […] measurements. (c) Flow cytometric analysis of surface activation markers on human EM CD8 T cells 24 hours after activation by plate-bound anti-CD3 Ab and soluble anti-CD28 Ab, in 1.2 mM and 0 mM Mg^2+ media, respectively. (d) Abundance of inflammatory cytokines in corresponding EM CD8 T cell culture supernatants, determined by CBA. (e) CD11a (LFA-1) surface expression on human naïve and EM CD8 T cells as well PHA T cell blasts. Flow cytometry-based assessment of total LFA-1 expression assessed by mAb TS2/4 (f), closed conformation of αL by mAb HI111 (g), extended conformation of LFA-1 by mAb Kim127 (h), open head-piece conformation of LFA-1 by mAb m24 (i), phosphorylation of focal adhesion kinase (FAK) […] as well TNF expression (k)±TCR-induced activation in different extracellular Mg^2+ concentrations. (l) Flow cytometry-based assessment of LFA-1 with open-head piece conformation on human EM and naïve CD8 T cells using the open head-piece reporter mAb m24. (m) Assessment of glycolytic switch of EM CD8 T cells. (n) Assessment of glycolytic switch of naïve CD8 T cells. […] Naïve CD8 T cells were activated with in house generated anti-CD3/anti-CD28 coated microbeads. Polybead microspheres ([…], Polyscience […]) were incubated with 1 μg anti-CD3 Ab and 10 μg anti-CD28 Ab. […] Primary human T cells were activated for 24 h and PHA-blasts for 4 h. For evaluation of activation induced LFA-1 head-piece opening, T cells were activated for […] and anti-human CD11a/CD18 (clone m24) was directly added in medium and incubated on ice for 20 min. Cells were then washed twice in FACS Buffer and fixed in 2% PFA, incubated at room temperature for 20 min and washed with FACS Buffer before acquisition. […] For stainings with HI111, the cells were activated for 45 min, fixed with 2% PFA and subsequently stained with HI111 and washed with FACS Buffer before acquisition.

Test [2] deals with T1, LFA-1. The test is described as follows: LFA-1 conformations on REP T cells co-incubated with peptide-pulsed T2 target cells. The test is classed as cell-based. The settings on record: T2 cells pulsed with 10^−8 M 9c peptide; E:T 1:1; presence vs absence of extracellular Mg^2+. The method, then:
FIG. 3: Magnesium regulates LFA-1 mediated T cell activation and cytotoxicity as well BiTE- and CAR T-cell functionality. (a) Glycolytic switch of murine WT and LFA-1^-/- CTLs upon injection of anti-CD3/28 Ab in medium containing 1.2 mM Mg^2+ and 0 mM Mg^2+, presented as quantification of summarized data with n=4 mice. (b) Calcium flux in WT and LFA-1^-/- Jurkat T cells stimulated with anti-CD3 Ab in 1.2 mM and 0 mM Mg^2+ medium, respectively. Cells were loaded with Fluo4, and signal intensity as recorded by plate reader, was normalized to unstimulated baseline values. […] Quantified results of n=3 mice with 3 technical replicates each. […] The effector to target cell ratio was 3:1. Results are quantified of n=3 mice with 3 technical replicates each. (e) Representative CD11a (LFA-1) surface expression on human naïve and EM CD8 T cells, PHA T cell blasts and REP T cells, assessed by flow cytometry. […] The effector to target cell ratio was 1:1. Data is presented as quantified results of n=5 healthy donors (f, g, h), n=3 healthy donors with 2 technical replicates each or n=1 healthy donor with 4 technical replicates (j). […] The effector to target cell ratio was 1:1. Data is presented as quantified results of n=1 healthy donor with 4 technical replicates. […] (n) Representative histogram of CD11a expression on PHA-blasts, untransduced T cells as well anti-CD19 expressing CAR T cells. […] Pooled results of n=6 from 2 independent experiments are shown. (p) Abundance of IFNγ in cell culture supernatants corresponding to the conditions depicted in (o) at 24 hours was determined by ELISA (n=8, 3 independent experiments). (q) Tumor growth curves of mice placed on either Mg^2+-depleted diet or respective control diet and treated with either anti-PSMA CAR T cells, untransduced T cells or saline solution. Representative of n=2 independent experiments with n=6 mice per group. REP […] target cells in flat bottom 96 well-plate, if not indicated otherwise, at a 1:1 ratio (4-6×10^4 each). Optimal ratio had been titrated for each donor beforehand. […]

Where [3] appears, read: PHA T cell blasts ±TCR-induced activation, different extracellular Mg^2+ concentrations.

Molecules are shown by their SMILES.

T1 sequence (P20701 26-1170): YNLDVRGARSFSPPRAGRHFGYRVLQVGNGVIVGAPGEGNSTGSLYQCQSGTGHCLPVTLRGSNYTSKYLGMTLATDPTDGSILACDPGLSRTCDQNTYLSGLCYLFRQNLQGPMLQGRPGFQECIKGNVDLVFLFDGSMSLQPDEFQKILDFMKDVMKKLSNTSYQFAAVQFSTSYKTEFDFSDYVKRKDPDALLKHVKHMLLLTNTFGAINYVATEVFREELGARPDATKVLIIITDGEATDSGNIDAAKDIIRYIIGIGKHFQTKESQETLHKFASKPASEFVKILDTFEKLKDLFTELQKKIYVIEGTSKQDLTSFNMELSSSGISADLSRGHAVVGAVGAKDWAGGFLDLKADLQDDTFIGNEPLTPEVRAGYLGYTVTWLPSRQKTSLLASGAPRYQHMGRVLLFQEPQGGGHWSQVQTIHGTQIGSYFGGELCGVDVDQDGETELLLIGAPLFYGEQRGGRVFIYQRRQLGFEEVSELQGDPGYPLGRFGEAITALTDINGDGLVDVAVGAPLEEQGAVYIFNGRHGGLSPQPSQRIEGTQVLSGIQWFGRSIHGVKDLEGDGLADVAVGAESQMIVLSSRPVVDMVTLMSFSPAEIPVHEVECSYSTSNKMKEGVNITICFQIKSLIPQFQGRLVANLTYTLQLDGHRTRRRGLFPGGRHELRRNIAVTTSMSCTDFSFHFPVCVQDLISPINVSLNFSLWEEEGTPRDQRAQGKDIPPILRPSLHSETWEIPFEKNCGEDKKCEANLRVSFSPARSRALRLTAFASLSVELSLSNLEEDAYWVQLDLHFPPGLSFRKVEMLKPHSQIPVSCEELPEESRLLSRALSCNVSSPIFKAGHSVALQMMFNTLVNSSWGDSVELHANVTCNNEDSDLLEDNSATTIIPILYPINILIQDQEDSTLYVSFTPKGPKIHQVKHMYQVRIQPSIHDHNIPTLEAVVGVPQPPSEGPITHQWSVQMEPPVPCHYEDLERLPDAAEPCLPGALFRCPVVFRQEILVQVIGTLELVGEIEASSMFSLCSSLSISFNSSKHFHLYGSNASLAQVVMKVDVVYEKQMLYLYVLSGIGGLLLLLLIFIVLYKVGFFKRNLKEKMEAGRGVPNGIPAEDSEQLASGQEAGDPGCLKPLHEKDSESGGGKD
T1 sequence (P05107 23-769): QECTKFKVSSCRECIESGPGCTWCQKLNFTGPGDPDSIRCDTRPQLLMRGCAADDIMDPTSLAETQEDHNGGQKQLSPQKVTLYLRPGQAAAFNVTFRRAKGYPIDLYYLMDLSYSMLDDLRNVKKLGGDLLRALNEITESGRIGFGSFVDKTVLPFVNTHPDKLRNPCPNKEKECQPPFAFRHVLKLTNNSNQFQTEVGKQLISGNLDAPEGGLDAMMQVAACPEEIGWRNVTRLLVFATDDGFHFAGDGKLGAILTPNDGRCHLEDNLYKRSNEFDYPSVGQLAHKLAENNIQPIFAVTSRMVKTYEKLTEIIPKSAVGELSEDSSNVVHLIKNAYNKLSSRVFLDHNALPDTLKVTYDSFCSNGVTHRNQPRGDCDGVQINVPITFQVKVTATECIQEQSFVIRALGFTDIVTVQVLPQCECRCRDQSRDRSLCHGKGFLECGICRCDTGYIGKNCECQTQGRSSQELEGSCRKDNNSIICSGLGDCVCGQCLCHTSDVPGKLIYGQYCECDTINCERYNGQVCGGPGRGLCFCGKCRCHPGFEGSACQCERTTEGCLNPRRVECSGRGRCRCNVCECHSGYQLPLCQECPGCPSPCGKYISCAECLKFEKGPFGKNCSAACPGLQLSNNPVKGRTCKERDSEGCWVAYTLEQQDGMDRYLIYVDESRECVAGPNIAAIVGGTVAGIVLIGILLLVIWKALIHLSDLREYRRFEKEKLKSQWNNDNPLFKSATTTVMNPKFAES

Regarding `[Mg+2]` [Mg^2+, Magnesium], the “Extended conformation of LFA-1 (mAb KIM127)” value at LFA-1 [1] (PHA T cell blasts upon T-cell activation, increasing extracellular Mg^2+ concentrations) was “dose-dependent KIM127 signal increase”. In addition, the “Inactive/bent LFA-1 conformation (mAb HI111)” value at LFA-1 [1] (PHA T cell blasts upon TCR stimulation, decreasing extracellular Mg^2+ concentrations) is “higher levels of inactive LFA-1”. In addition, on LFA-1 [1] (setting [3]), the “Open head-piece conformation of LFA-1 (mAb m24)” value is on record as “strongly depending on extracellular Mg^2+ concentration” and the “Total LFA-1 expression (mAb TS2/4 epitope)” value is listed as “independent on the extracellular Mg^2+ concentration”. Further, the “LFA-1 activation in unstimulated T cells” value at LFA-1 [1] (±Mg^2+, data not shown) is “did not differ”. On LFA-1 [2], the “Extended LFA-1 conformation on REP T cells” value is “significant increase of extended LFA-1”; the “Inactive LFA-1 with bent conformation on REP T cells” value was “reduced abundance of inactive, bent conformation”; the “LFA-1 with open head-piece on REP T cells” value is listed as “significant increase”.
